Key:
Format in all cases: in vivo, BALB/c mice
[1] = test system: IL-1α; experiment: IL-1α mRNA in inflamed corneas, real-time PCR; settings: 24 h and 72 h
Description: (§1) The standard model for induction of inflammatory corneal NV is associated with development of intrastromal vessels in close association with a mixed-cell (primarily neutrophilic) infiltrate. (43,44) Three interrupted sutures (11-0 nylon, Sharpoint; Vanguard, Houston, Tex.) were placed intrastromally with two stromal incursions extending over 120° of the corneal circumference each to induce inflammatory corneal NV, which is also associated with significant LA, as described previously. (43) The corneas were followed by slit-lamp biomicroscopy for corneal NV development. […]
(§2) BALB/c mice were randomized to receive ATLa, or vehicle (normal saline) by subconjunctival injection in a masked fashion after suture or hydron pellet placement. […] (49) The physical properties were monitored routinely via LC/MS/MS matching the reported biological and physical properties prior to analysis in present experiments. […]
(§3) 1 μl of total cDNA, synthesized from 400 ng total RNA with random hexamers using Superscript™ III Reverse Transcriptase (Invitrogen, Carlsbad, Calif.), was loaded in each well and assays were performed in triplicates. […] The results were analyzed by comparative threshold cycle (CT) method. The relative expression level of each sample was expressed as fold change from normal control.

[2] = test system: VEGF-A; experiment: VEGF-A mRNA in inflamed corneas, real-time PCR; settings: 24 h and 72 h after suture placement
Description: as §1, §2, §3

[3] = test system: mouse IL-1 beta; experiment: IL-1β protein in inflamed corneas, ELISA
Description: FIG. 13, ATLa Regulates IL-1β. Mice were treated at 0 h and 48 h after suture-placement with ATLa or vehicle. Whole corneas were excised at 72 h, and subsequently freeze-thawed 3 times. Cornea was then homogenized using a pellet pestile motor with additional protease inhibitors. Homogenates were centrifuged at 12,000 rpm for 5 minutes and the supernatant was assayed for mouse IL-1 beta via ELISA (eBioscience, USA) according to the manufacturer's instructions.
as §1
(§4) BALB/c mice were randomized to receive ATLa, or vehicle (normal saline) by subconjunctival injection in a masked fashion after suture or hydron pellet placement. […] (49) The physical properties were monitored routinely via LC/MS/MS matching the reported biological and physical properties prior to analysis in present experiments.

[4] = test system: VEGFR-3; experiment: VEGFR-3 mRNA in inflamed corneas, real-time PCR; settings: vs vehicle-treated controls
Description: as §1, §2, §3

[5] = test system: VEGF-D; experiment: VEGF-D mRNA in inflamed corneas, real-time PCR; settings: vs vehicle-treated controls
Description: as §1, §2, §3

[6] = test system: VEGF-C; experiment: VEGF-C mRNA in inflamed corneas, real-time PCR; settings: 24 h and 72 h after suture placement
Description: as §1, §2, §3

[7] = test system: VEGFR-2; experiment: VEGFR-2 mRNA in inflamed corneas, real-time PCR; settings: 24 h and 72 h after suture placement
Description: as §1, §2, §3

[8] = test system: IL-1β-induced corneal HA and LA; experiment: Corneal micropocket assay, IL-1β pellet; settings: IL-1β micropellet
Description: (§5) The corneal micropocket assay in mice and quantification of the resultant NV has been described previously. (45,46) In brief, 0.3 μl of hydron pellets (IFN Sciences, New Brunswick, N.J.) containing 30 ng of murine IL-1β (R&D Systems, Minneapolis, Minn.) or 200 ng of VEGF-A (gift from BRB Preclinical Repository, National Cancer Institute) were prepared and implanted into the corneal stroma of male BALB/c mice. After 7 days the animals were sacrificed and the corneas were harvested for quantitative analysis of HA and LA.
as §4
(§6) Full thickness corneal tissue or 8 μm-frozen sections were fixed in acetone for 15 minutes at room temperature. […] Finally, the samples were covered with mounting medium (Vector Laboratories, Burlingame, Calif.) and analyzed by epifluorescence microscopy (Eclipse E800; Nikon, Tokyo, Japan). […]
(§7) To quantify corneal angiogenesis, digital pictures of corneal flat-mounts were taken using an image analysis system (Spot Image Analysis, Diagnostic Instruments, Sterling Heights, Mich.). […]

[9] = test system: TNF-α; experiment: TNF-α mRNA in inflamed corneas, real-time PCR
Description: as §1, §2, §3

[10] = test system: suture-induced corneal NV; experiment: Suture-induced inflammatory corneal angiogenesis (HA and LA)
Description: (§8) Six to eight-week-old male BALB/c (Taconic Farms, Germantown, N.Y.) mice were used in all experiments. All experimental protocols were approved by the Schepens Eye Research Institute Animal Care and Use Committee, and all animals were treated according to the Association for Research in Vision and Ophthalmology Statement for the Use of Animals in Ophthalmic and Vision Research.
as §1, §4, §6
To quantify corneal angiogenesis, digital pictures of corneal flat-mounts were taken using an image analysis system (Spot Image Analysis, Diagnostic Instruments, Sterling Heights, Mich.). The areas covered by CD31^high/LYVE-1^−-vessels (blood vessels) or CD31^lowLYVE-1^high vessels (lymphatics) were measured morphometrically using NIH Image J software (version 1.34s; http://rsb.info.nih.gov/ij). […] The vessel density was calculated by the proportion of neovascularized area to the whole corneal area.

[11] = test system: inflamed corneas; experiment: Neutrophil and macrophage infiltration in suture-inflamed corneas
Description: as §8
The standard model for induction of inflammatory corneal NV is associated with development of intrastromal vessels in close association with a mixed-cell (primarily neutrophilic) infiltrate. (43,44) Three interrupted sutures (11-0 nylon, Sharpoint; Vanguard, Houston, Tex.) were placed intrastromally with two stromal incursions extending over 120° of the corneal circumference each to induce inflammatory corneal NV, which is also associated with significant LA, as described previously. (43) The corneas were followed by slit-lamp biomicroscopy for corneal NV development. NV was graded between 0 and 3, with increments of 0.5, using a grid system per each corneal quadrant based on the centripetal extent of the neovascular branches from the limbus. Scores for each quadrant then summed to derive the NV index (range 0 to 12) for each eye, as previously described. (43)
BALB/c mice were randomized to receive ATLa, or vehicle (normal saline) by subconjunctival injection in a masked fashion after suture or hydron pellet placement. The compounds were administered at a dose of 100 ng/10 μl per mouse every 48 h after suture or pellet placed. ATLa was synthesized as described previously. (49) The physical properties were monitored routinely via LC/MS/MS matching the reported biological and physical properties prior to analysis in present experiments.
Full thickness corneal tissue or 8 μm-frozen sections were fixed in acetone for 15 minutes at room temperature. To block non-specific staining, anti-FcR mAb ([…], FcγIII/II receptor) or 10% goat serum was used before primary antibodies or isotype-matched control antibodies were applied at 4° C. overnight. Thereafter, samples were incubated with secondary antibodies at RT. Each step was followed by three thorough washings in PBS for 5-10 minutes. Finally, the samples were covered with mounting medium (Vector Laboratories, Burlingame, Calif.) and analyzed by epifluorescence microscopy (Eclipse E800; Nikon, Tokyo, Japan). The following antibodies were used: FITC-conjugated rat anti-mouse CD31 (Santa Cruz Biotechnology, Santa Cruz, Calif.), purified rat anti-mouse neutrophil (NIMP-R14, Abcam, Cambridge, Mass.), purified rat anti-mouse F4/80 (Novus Biologicals, Littleton, Colo.) and purified rabbit anti-mouse LYVE-1 (Abcam, Cambridge, Mass.). The secondary antibodies were Rodamine-conjugated donkey anti-rabbit IgG and Rodamine-conjugated goat anti-rat IgG (Santa Cruz Biotechnology, Santa Cruz, Calif.). Isotype controls included FITC-conjugated rat IgG2a, purified rat IgG2b, and purified rabbit IgG (Santa Cruz Biotechnology, Santa Cruz, Calif.).

[12] = test system: VEGF-A-induced corneal HA and LA; experiment: Corneal micropocket assay, VEGF-A pellet; settings: VEGF-A micropellet
Description: as §5, §4, §6, §7

[13] = test system: IL-1β; experiment: IL-1β mRNA in inflamed corneas, real-time PCR; settings: vs vehicle-treated controls
Description: as §1, §2, §3

[14] = 72 h after suture placement, n=3

`COC(=O)CCC[C@H](O)[C@H](O)/C=C/C=C/C=C\C=C\[C@H](O)COc1ccc(F)cc1` [ATLa, 15-epi-16-(para-fluoro)-phenoxy-lipoxin A4 methyl ester] was tested, and the “expression of IL-1α” value [1] was “not significantly altered”, the “mRNA expression of VEGF-A” value [2] was “lower mRNA expressions” and the “IL-1 beta in corneas” value ([3]; 72 h, treated at 0 h and 48 h, n=4) was 21.3 ± 0.8 pg/mL. The “decrease in IL-1β protein level” value ([3]; vs vehicle-treated group) was 70%, the “mRNA expression of VEGFR-3” value [4] was “not significantly altered” and the “mRNA expression of VEGF-D” value [5] was “not significantly altered”. For the same molecule, the “mRNA expression of VEGF-C” value [6] was “lower mRNA expressions”, the “mRNA expression of VEGFR-2” value [7] was “lower mRNA expressions” and the LA ([8]; day 7) was “no significant reduction”. For the same molecule, the BV density ([8]; day 7, n=4) was 16.1±3.0%, the “increase in TNF-α expression” value ([9]; 24 h) was “significantly suppressed” and the “increase in TNF-α expression” value ([9]; 72 h) was “not at 72 h”. The “growth of corneal neovessels, slit lamp biomicroscopy” value ([10]; 2-week time course) was “significant suppression of the angiogenic response”, the “density of lymphatic vessels” value ([10]; day 14, vs vehicle) was “not observed” and the BV density ([10]; day 14 after suture placement, n=6) was 8.26±0.63%. The “inhibition of neutrophils recruitment” value ([11]; 24 and 72 h, 100 ng subconjunctival at 0 and 48 h) was ~30%, the neutrophils ([11]; 24 h after suture placement, n=3) was 53±1 cells/section and the “reduction in macrophage infiltration” value ([11]; 72 h, vs vehicle) was 25-40%. For the same molecule, the macrophage [11, 14] was 46±5 cells/section, the neutrophils [11, 14] was 34±5 cells/section and the LA ([12]; day 7) was “no significant reduction”. The BV density ([12]; day 7, n=4) was 5.9±0.4% and the “reduction in the increase of IL-1β expression levels” value [13] was “more than 50%”.

Source: patent US8722654B2, “Lipoxin analogs as novel inhibitors of angiogenesis” (The Brigham and Women's Hospital, Inc., priority 2001, dated 2014)
